Assay results reported in patent US20090099186A1, “INHIBITORS OF VIRAL REPLICATION” (priority 2005, published 2009).

Target: T1, full-length NS3 (1-631) protein (HCV NS3 helicase) (Hepatitis C virus genotype 1a, UniProt P27958)
T1 construct: Recombinant, purified, full-length NS3 (1-631) protein
Assay: HCV Helicase TR-FRET Unwinding Assay
Format: biochemical
Experimental: HCV Helicase TR-FRET Unwinding Assay
Compound potency was assessed by determining the ability of the compound to inhibit DNA unwinding in an in vitro homogeneous time-resolved fluorescence quench assay. The helicase substrate (Perkin Elmer, TruPoint Helicase Substrate) consisted of partially double-stranded DNA, with one oligonucleotide strand labeled with a fluorescent europium chelate and the other strand labeled with the QSY™ 7 quencher. In the presence of helicase and ATP, this DNA is unwound and a large increase in fluorescence is observed. An excess of an unlabeled oligonucleotide (also from Perkin Elmer, TruPoint Helicase Capture Strand) that is complementary to the quencher strand was included in the assay to prevent reannealing of the europium and QSY-labeled strands.
The assay buffer consisted of 25 mM MOPS (pH 7.0), 500 μM MgCl2, and 0.005% (v/v) Triton X-100, with DMSO being present at a final concentration of 2% (v/v). Recombinant, purified, full-length NS3 (1-631) protein was included in these assays at a final concentration of 2.5 nM. Compound was incubated with NS3 protein for 5 minutes in a 384-well white Proxiplate™ (Perkin Elmer) prior to the addition of TruPoint Helicase Substrate (4 nM final concentration), TruPoint Helicase Capture Strand (15 nM final concentration), and ATP (100 μM final concentration). The final reaction volume was 20 μL. Immediately after the addition of the substrates and capture strand, the initial rates of the unwinding reactions were determined at room temperature via an Envision (Perkin Elmer) plate reader. The rates of reactions containing test compound were compared to those lacking test compound in order to evaluate compound potency. IC50 values were determined using the curve-fitting software XLfit (IDBS).

[1] = Table 4, inhibition of DNA unwinding, 2.5 nM NS3, 100 μM ATP
[2] = second TR-FRET IC50 column (c2) of Table 4, same head as the first, inhibition of DNA unwinding

T1 sequence (P27958 1027-1657 T1100M/T1173A/K1247Q/A1303G/S1327L/G1556E/R1608W): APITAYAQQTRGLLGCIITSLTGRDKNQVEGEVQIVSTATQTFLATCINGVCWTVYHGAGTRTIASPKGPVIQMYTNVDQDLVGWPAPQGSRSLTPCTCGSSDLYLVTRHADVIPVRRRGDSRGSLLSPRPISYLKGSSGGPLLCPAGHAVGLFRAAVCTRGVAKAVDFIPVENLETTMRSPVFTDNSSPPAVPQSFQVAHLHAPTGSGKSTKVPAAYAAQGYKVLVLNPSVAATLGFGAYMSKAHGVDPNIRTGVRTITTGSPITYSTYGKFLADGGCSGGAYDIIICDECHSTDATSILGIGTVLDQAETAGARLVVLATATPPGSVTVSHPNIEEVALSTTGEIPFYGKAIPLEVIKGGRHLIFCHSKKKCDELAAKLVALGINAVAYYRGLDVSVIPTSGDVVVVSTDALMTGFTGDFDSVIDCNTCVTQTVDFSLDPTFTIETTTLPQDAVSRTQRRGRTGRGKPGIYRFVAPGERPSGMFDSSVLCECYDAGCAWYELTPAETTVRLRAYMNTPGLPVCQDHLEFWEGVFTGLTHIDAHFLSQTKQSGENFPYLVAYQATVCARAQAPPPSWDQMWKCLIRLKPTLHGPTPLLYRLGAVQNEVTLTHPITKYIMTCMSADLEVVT

| Compound | IC50 [1] [µM] | IC50 [2] [µM] |
| --- | --- | --- |
| O=C(/C=C/c1ccccc1Cl)Nc1ccccc1 [Example 35, (E)-3-(2-chlorophenyl)-N-phenylacrylamide] | 10 to 50 | 10 to 50 |
| COc1ccccc1Sc1ccc(/C=C/C(=O)N2CCC(C(=O)O)CC2)c(Cl)c1 [Example 26, (E)-1-(3-(2-chloro-4-(2-methoxyphenylthio)phenyl)acryloyl)piperidine-4-carboxylic acid] | 10 to 50 | 10 to 50 |
| CCN(CC)C(=O)/C=C/c1cc(C)c(Sc2ccc(F)cc2)cc1Cl [Example 18, (E)-3-(2-chloro-4-(4-fluorophenylthio)-5-methylphenyl)-N,N-diethylacrylamide] | 10 to 50 | 10 to 50 |
| COc1ccccc1Sc1ccc(/C=C/C(=O)N2CCC(C(=O)O)CC2)c(Cl)c1Cl [Example 32D, (E)-1-(3-(2,3-dichloro-4-(2-methoxyphenylthio)phenyl)acryloyl)piperidine-4-carboxylic acid] | 10 to 50 | 10 to 50 |
| COC(=O)c1cccc(NC(=O)/C=C/c2ccc(Sc3ccc(F)cc3)cc2Cl)c1 [Example 7, (E)-methyl 3-(3-(2-chloro-4-(4-fluorophenylthio)phenyl)acrylamido)benzoate] | < 10 | < 10 |
| CCOC(=O)CCNC(=O)/C=C/c1cc(C)c(Sc2ccc(F)cc2)cc1Cl [Example 19, (E)-ethyl 3-(3-(2-chloro-4-(4-fluorophenylthio)-5-methylphenyl)acrylamido)propanoate] | 10 to 50 | 10 to 50 |
| CN(C)c1ccc(/C=C/C(=O)NCCN2CCOCC2)c(Cl)c1 [Example 10] | 10 to 50 | 10 to 50 |
| O=C(/C=C/c1ccc(Sc2ccc(F)cc2)cc1Cl)N1CCCCC1 [Example 2, (E)-3-(2-chloro-4-(4-fluorophenylthio)phenyl)-1-(piperidin-1-yl)prop-2-en-1-one] | < 10 | < 10 |
| Cc1cc(/C=C/C(=O)N2CCOCC2)c(Cl)cc1Sc1ccc(F)cc1 [Example 23, (E)-3-(2-chloro-4-(4-fluorophenylthio)-5-methylphenyl)-1-morpholinoprop-2-en-1-one] | 10 to 50 | 10 to 50 |
| COc1ccccc1Sc1ccc(/C=C/C(=O)NCCC(=O)O)c(Cl)c1 [Example 29, (E)-3-(3-(2-chloro-4-(2-methoxyphenylthio)phenyl)acrylamido)propanoic acid] | 10 to 50 | 10 to 50 |
| CN(C)c1ccc(/C=C/C(=O)N2CCN(C(=O)c3ccoc3)CC2)c(Cl)c1 [Example 12, (E)-3-(2-chloro-4-(dimethylamino)phenyl)-1-(4-(furan-3-carbonyl)piperazin-1-yl)prop-2-en-1-one] | 10 to 50 | 10 to 50 |
| CN(C)c1ccc(/C=C/C(=O)NCCCn2ccnc2)c(Cl)c1 [Example 11, (E)-N-(3-(1H-imidazol-1-yl)propyl)-3-(2-chloro-4-(dimethylamino)phenyl)acrylamide] | 10 to 50 | 10 to 50 |
| Cc1cc(/C=C/C(=O)N2CCCCC2)c(Cl)cc1Sc1ccc(F)cc1 [Example 16G, (E)-3-(2-chloro-4-(4-fluorophenylthio)-5-methylphenyl)-1-(piperidin-1-yl)prop-2-en-1-one] | 10 to 50 | 10 to 50 |
| O=C(/C=C/c1ccc(Sc2ccc(F)cc2)cc1Cl)N1CCOCC1 [Example 3, (E)-3-(2-chloro-4-(4-fluorophenylthio)phenyl)-1-morpholinoprop-2-en-1-one] | 10 to 50 | 10 to 50 |
| Cc1cc(/C=C/C(=O)Nc2cccc(C(=O)O)c2)c(Cl)cc1Sc1ccc(F)cc1 [Example 21, (E)-3-(3-(2-chloro-4-(4-fluorophenylthio)-5-methylphenyl)acrylamido)benzoic acid] | < 10 | < 10 |
| O=C(/C=C/c1ccc(Sc2ccc(F)cc2)cc1Cl)N1CCN(C(=O)c2ccoc2)CC1 [Example 1B, (E)-3-(2-chloro-4-(4-fluorophenylthio)phenyl)-1-(4-(furan-3-carbonyl)piperazin-1-yl)prop-2-en-1-one] | 10 to 50 | 10 to 50 |
| COc1ccccc1Sc1ccc(/C=C/C(=O)NCCCN(C)C)c(Cl)c1 [Example 24B, (E)-3-(2-chloro-4-(2-methoxyphenylthio)phenyl)-N-(3-(dimethylamino)propyl)acrylamide] | 10 to 50 | 10 to 50 |
| COC(=O)C1CCN(C(=O)/C=C/c2ccc(N(C)C)cc2Cl)CC1 [Example 14, (E)-methyl 1-(3-(2-chloro-4-(dimethylamino)phenyl)acryloyl)piperidine-4-carboxylate] | 10 to 50 | 10 to 50 |

| Compound | IC50 [1] [µM] | IC50 [2] [µM] |
| --- | --- | --- |
| Cc1cc(/C=C/C(=O)N2CCC(C(=O)O)CC2)c(Cl)cc1Sc1ccc(F)cc1 [Example 22, (E)-1-(3-(2-chloro-4-(4-fluorophenylthio)-5-methylphenyl)acryloyl)piperidine-4-carboxylic acid] | 10 to 50 | < 10 |
| O=C(O)C1CCN(C(=O)/C=C/c2ccc(Sc3ccc(F)cc3)cc2Cl)CC1 [Example 6] | 10 to 50 | 10 to 50 |
| Cc1cc(/C=C/C(=O)NCCC(=O)O)c(Cl)cc1Sc1ccc(F)cc1 [Example 20, (E)-3-(3-(2-chloro-4-(4-fluorophenylthio)-5-methylphenyl)acrylamido)propanoic acid] | 10 to 50 | 10 to 50 |
| O=C(/C=C/c1ccccc1Cl)NCCO [Example 33] | 10 to 50 | 10 to 50 |
| CCN(CC)C(=O)/C=C/c1ccc(Sc2ccc(F)cc2)cc1Cl [Example 4, (E)-3-(2-chloro-4-(4-fluorophenylthio)phenyl)-N,N-diethylacrylamide] | 10 to 50 | 10 to 50 |
| CN(C)c1ccc(/C=C/C(=O)N2CCC(C(=O)O)CC2)c(Cl)c1 [Example 15] | 10 to 50 | 10 to 50 |
| O=C(/C=C/c1ccc(Sc2ccc(F)cc2)cc1Cl)Nc1cccc(C(=O)O)c1 [Example 8, (E)-3-(3-(2-chloro-4-(4-fluorophenylthio)phenyl)acrylamido)benzoic acid] | < 10 | < 10 |
| CN(C)c1ccc(/C=C/C(=O)N2CCOCC2)c(Cl)c1 [Example 13, (E)-3-(2-chloro-4-(dimethylamino)phenyl)-1-morpholinoprop-2-en-1-one] | 10 to 50 | 10 to 50 |
| CCN(CC)C(=O)/C=C/c1ccc(Sc2ccccc2OC)cc1Cl [Example 28, (E)-3-(2-chloro-4-(2-methoxyphenylthio)phenyl)-N,N-diethylacrylamide] | 10 to 50 | 10 to 50 |
| Cc1cc(/C=C/C(=O)N2CCN(C(=O)c3ccoc3)CC2)c(Cl)cc1Sc1ccc(F)cc1 [Example 17, (E)-3-(2-chloro-4-(4-fluorophenylthio)-5-methylphenyl)-1-(4-(furan-3-carbonyl)piperazin-1-yl)prop-2-en-1-one] | 10 to 50 | 10 to 50 |
| CC(=O)N1CCN(C(=O)/C=C/c2ccc(N(C)C)cc2Cl)CC1 [Example 9B, (E)-1-(4-acetylpiperazin-1-yl)-3-(2-chloro-4-(dimethylamino)phenyl)prop-2-en-1-one] | < 10 | < 10 |
| O=C(O)C1CCN(C(=O)/C=C/c2ccc(Sc3ccc(F)cc3)cc2C(F)(F)F)CC1 [Example 31B, (E)-1-(3-(4-(4-fluorophenylthio)-2-(trifluoromethyl)phenyl)acryloyl)piperidine-4-carboxylic acid] | 10 to 50 | 10 to 50 |
| COc1ccccc1Sc1ccc(/C=C/C(=O)N2CCC(N3CCCC3)CC2)c(Cl)c1 [Example 30, (E)-3-(2-chloro-4-(2-methoxyphenylthio)phenyl)-1-(4-(pyrrolidin-1-yl)piperidin-1-yl)prop-2-en-1-one] | 10 to 50 | 10 to 50 |
| COC(=O)C1CCN(C(=O)/C=C/c2ccc(Sc3ccc(F)cc3)cc2Cl)CC1 [Example 5, (E)-methyl 1-(3-(2-chloro-4-(4-fluorophenylthio)phenyl)acryloyl)piperidine-4-carboxylate] | 10 to 50 | 10 to 50 |
| COc1ccccc1Sc1ccc(/C=C/C(=O)NCCC2CCN(C)C2)c(Cl)c1 (stereo not shown) [Example 25, (E)-3-(2-chloro-4-(2-methoxyphenylthio)phenyl)-N-(2-(1-methylpyrrolidin-3-yl)ethyl)acrylamide] | 10 to 50 | 10 to 50 |
| O=C(/C=C/c1ccccc1Cl)N1Cc2ccccc2C1 [Example 34, (E)-3-(2-chlorophenyl)-1-(isoindolin-2-yl)prop-2-en-1-one] | 10 to 50 | 10 to 50 |
| COc1ccccc1Sc1ccc(/C=C/C(=O)N2CCN(C(=O)c3ccoc3)CC2)c(Cl)c1 [Example 27, (E)-3-(2-chloro-4-(2-methoxyphenylthio)phenyl)-1-(4-(furan-3-carbonyl)piperazin-1-yl)prop-2-en-1-one] | 10 to 50 | 10 to 50 |
